Measurements from article PMC5584945, “Evaluation of robenidine analog NCL195 as a novel broad-spectrum antibacterial agent” (PLoS ONE, 2017).

How the values were obtained:
[1] = test system: A. anitratus; assay: MIC, broth micro-dilution; assay type: cell-based; settings: Acinetobacter calcoaceticus; one A. anitratus isolate; absence of EDTA
Experimental: (§1) MICs for NCL812 and its analogs (serial two-fold dilutions commencing at 128 μg/ml) were determined (in duplicate) in round bottom 96-well microtitre trays (Sarstedt 82.1582.001), using the broth micro-dilution method recommended by the Clinical and Laboratory Standards Institute (CLSI). […] MIC50, MIC90 and MIC range for NCL812, NCL195 and NCL219 were calculated against each S. pneumoniae, S. aureus or VRE isolate. To assess the potential activity of NCL195 against Gram-negative bacteria, MICs against Acinetobacter spp, E. coli, K. pneumoniae, P. aeruginosa, Proteus spp and Neisseria meningitidis were performed in the presence or absence of 0.08 mM-20 mM EDTA in a standard checkerboard assay.

[2] = test system: A. calcoaceticus; assay: MIC, broth micro-dilution; assay type: cell-based; settings: 8 A. calcoaceticus isolates; absence of EDTA
Experimental: as §1

[3] = test system: S. pneumoniae D39; assay: TEM morphometric analysis of cell membrane; assay type: cell-based, Streptococcus pneumoniae; settings: 16 μg/ml, 6 h exposure
Experimental: (§2) Morphological appearance and morphometric analysis of the cell membrane of S. pneumoniae D39 after exposure to either 1 μg/ml, 4 μg/ml or 16 μg/ml of NCL812 was determined using TEM, as described in S1 File (Supplementary Methods). For S. aureus ATCC 29213, macromolecular (DNA, RNA, protein, cell wall, and lipid) synthesis inhibition studies were performed using concentrations of NCL812 that were equivalent to 0, 0.25, 0.5, 1, 2, 4 or 8-fold the MIC value (4 μg/ml), as detailed in S1 File (Supplementary Methods).
Effect of NCL812 on S. pneumoniae D39 cell membrane ultra-structure. Morphological appearance and morphometric analysis of the cell membrane of S. pneumoniae D39 after exposure to either 1 µg/ml, 4 µg/ml or 16 µg/ml of NCL812 was determined using TEM. […] Cultures were then exposed to either 1 µg/ml, 4 µg/ml or 16 µg/ml of NCL812 and harvested at 6 or 12 h by centrifugation at […] for 20 min and washed twice in 50 ml PBS. Critical time points for TEM work were determined by analyzing trends in the growth curves produced from the kill kinetics studies. Samples were resuspended in PBS containing 20% glycerol and stored at -80°C until required. […]
Samples were fixed using modified protocols defined by a previous study examining cell wall ultrastructure of S. pneumoniae. […] Images were obtained at 130000× magnification and analyzed using analySIS (Olympus Soft Imaging Systems).

[4] = test system: S. aureus ATCC 29213; assay: Macromolecular synthesis inhibition; assay type: cell-based, Staphylococcus aureus; settings: 0.25 to 8-fold MIC; exponentially growing culture
Experimental: as §2
Effect of NCL812 on S. aureus ATCC29213 macromolecular synthesis. […]
A 5% DMSO treated culture served as the “no drug” control for all experiments. […] After washing three times with 5 ml of cold 5% TCA, the filters were rinsed two times with 5 ml 100% ethanol, allowed to dry, and then counted using a Beckman LS3801 liquid scintillation counter.
To test the effect of NCL812 on cell wall synthesis, bacteria were transferred to M9 minimal medium and added to 1.5 ml eppendorf tubes (100 μl/tube) containing various concentrations of test compound or control antibiotics (5 μl) at 20X the final concentration in 100% DMSO as described above. […] After washing three times with 5 ml of 0.1% SDS, the filters were rinsed two times with 5 ml of deionized water, allowed to dry, and then counted using a Beckman LS3801 liquid scintillation counter. […]

[5] = test system: mice; settings: cited from earlier work

Row | Structure (SMILES) | MIC [1] [µg/mL] | MIC range [2] [µg/mL] | Periplasmic space width ([3]; untreated 3.91 ± 0.14 nm) [nm] | Cell membrane thickness ([3]; untreated 4.35 ± 0.24 nm) [nm] | Effect on macromolecular synthesis pathways [4] | oral LD50 [5] [mg/kg]
1 | Cc1ccc(/C=N/Nc2cc(N/N=C/c3ccc(C)cc3)nc(N)n2)cc1 [NCL195, 4,6-bis(2-((E)-4-methylbenzylidene)hydrazinyl)pyrimidin-2-amine] | 4 | 4 to 32 | – | – | – | –
2 | Cl.N=C(NN=Cc1ccc(Cl)cc1)NN=Cc1ccc(Cl)cc1 [NCL812, 2,2'-bis[(4-chlorophenyl)methylene] carbonimidic dihydrazide hydrochloride] | – | – | 4.54 ±0.096 | 6.43 ± 0.29 | inhibited DNA (A), RNA (B), protein (C), cell wall (D), and lipid (E) pathways | 150
